According to US20230278972A1, “SUBSTITUTED HALOALKYL SULFONANILIDE HERBICIDES” (FMC Corporation, priority 2020, published 2023):

What was measured:
Type in all cases: in vivo
[1] = system: kochia (Bassia scoparia); assay: Test A postemergence, kochia; settings: Postemergence, 0 to 100 scale (0 no effect, 100 complete control); for Plant response rating, Kochia: 125 g ai/ha; for Kochia plant response rating: 500 g ai/ha, visual injury vs untreated controls after approx. 10 days
Outline: (§1)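 Whole-plant herbicidal screen in pots of loam blended with sand. Sprays used a surfactant-containing, non-phytotoxic solvent vehicle. Timing was preemergence soil-directed at planting or postemergence at the one- to two-leaf stage (2–10 cm).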

[2] = system: barnyardgrass (Echinochloa crus-galli); assay: Test A preemergence, barnyardgrass; settings: Preemergence, 0 to 100 scale (0 no effect, 100 complete control)
Outline: as §1

[3] = system: Ryegrass, Italian (Italian ryegrass, Lolium multiflorum); assay: Test A postemergence, Ryegrass, Italian; settings: Postemergence, 0 to 100 scale (0 no effect, 100 complete control); for Plant response rating, Ryegrass, Italian: 125 g ai/ha; for Ryegrass, Italian plant response rating: 500 g ai/ha, visual injury vs untreated controls after approx. 10 days
Outline: as §1

[4] = system: Foxtail, Giant (giant foxtail, Setaria faberi); assay: Test A preemergence, Foxtail, Giant; settings: Preemergence; for Plant response rating, Foxtail, Giant: 0 to 100 scale (0 no effect, 100 complete control); for Foxtail, Giant plant response rating: visual injury on 0 to 100 scale (0 no effect, 100 complete control), approximately 10 days
Outline: as §1

[5] = system: ragweed (common ragweed, Ambrosia artemisiifolia); assay: Test A preemergence, ragweed; settings: Preemergence; for Plant response rating, Ragweed: 0 to 100 scale (0 no effect, 100 complete control); for Ragweed plant response rating: visual injury on 0 to 100 scale (0 no effect, 100 complete control), approximately 10 days
Outline: as §1

[6] = system: corn (Zea mays); assay: Test A postemergence, corn; settings: Postemergence, 0 to 100 scale (0 no effect, 100 complete control); for Plant response rating, Corn: 125 g ai/ha; for Corn plant response rating: 500 g ai/ha, visual injury vs untreated controls after approx. 10 days
Outline: as §1

[7] = system: Foxtail, Giant (giant foxtail, Setaria faberi); assay: Test A postemergence, Foxtail, Giant; settings: Postemergence, 0 to 100 scale (0 no effect, 100 complete control); for Plant response rating, Foxtail, Giant: 125 g ai/ha; for Foxtail, Giant plant response rating: 500 g ai/ha, visual injury vs untreated controls after approx. 10 days
Outline: as §1

[8] = system: ragweed (common ragweed, Ambrosia artemisiifolia); assay: Test A postemergence, ragweed; settings: Postemergence, 0 to 100 scale (0 no effect, 100 complete control); for Plant response rating, Ragweed: 125 g ai/ha; for Ragweed plant response rating: 500 g ai/ha, visual injury vs untreated controls after approx. 10 days
Outline: as §1

[9] = system: blackgrass (Alopecurus myosuroides); assay: Test A postemergence, blackgrass; settings: Postemergence, 0 to 100 scale (0 no effect, 100 complete control); for Plant response rating, Blackgrass: 125 g ai/ha; for Blackgrass plant response rating: 500 g ai/ha, visual injury vs untreated controls after approx. 10 days
Outline: as §1

[10] = system: galium (catchweed bedstraw, Galium aparine); assay: Test A postemergence, galium; settings: Postemergence, 0 to 100 scale (0 no effect, 100 complete control); for Plant response rating, Galium: 125 g ai/ha; for Galium plant response rating: 500 g ai/ha, visual injury vs untreated controls after approx. 10 days
Outline: as §1

[11] = system: kochia (Bassia scoparia); assay: Test A preemergence, kochia; settings: Preemergence; for Plant response rating, Kochia: 0 to 100 scale (0 no effect, 100 complete control); for Kochia plant response rating: visual injury on 0 to 100 scale (0 no effect, 100 complete control), approximately 10 days
Outline: as §1

[12] = system: pigweed (Amaranthus retroflexus); assay: Test A postemergence, pigweed; settings: Postemergence, 0 to 100 scale (0 no effect, 100 complete control); for Plant response rating, Pigweed: 125 g ai/ha; for Pigweed plant response rating: 500 g ai/ha, visual injury vs untreated controls after approx. 10 days
Outline: as §1

[13] = system: pigweed (Amaranthus retroflexus); assay: Test A preemergence, pigweed; settings: for Plant response rating, Pigweed: 0 to 100 scale (0 no effect, 100 complete control); for Pigweed plant response rating: visual injury on 0 to 100 scale (0 no effect, 100 complete control), approximately 10 days
Outline: as §1

[14] = system: barnyardgrass (Echinochloa crus-galli); assay: Test A postemergence, barnyardgrass; settings: Postemergence, 0 to 100 scale (0 no effect, 100 complete control); for Plant response rating, Barnyardgrass: 125 g ai/ha; for Barnyardgrass plant response rating: 500 g ai/ha, visual injury vs untreated controls after approx. 10 days
Outline: as §1

[15] = system: Ryegrass, Italian (Italian ryegrass, Lolium multiflorum); assay: Test A preemergence, Ryegrass, Italian; settings: Preemergence; for Plant response rating, Ryegrass, Italian: 0 to 100 scale (0 no effect, 100 complete control); for Ryegrass, Italian plant response rating: visual injury on 0 to 100 scale (0 no effect, 100 complete control), approximately 10 days
Outline: as §1

[16] = system: wheat (Triticum aestivum); assay: Test A postemergence, wheat; settings: Postemergence, 0 to 100 scale (0 no effect, 100 complete control); for Plant response rating, Wheat: 125 g ai/ha; for Wheat plant response rating: 500 g ai/ha, visual injury vs untreated controls after approx. 10 days
Outline: as §1

[17] = 125 g ai/ha, visual injury, approx. 10 days

SMILES | Plant response rating, Kochia [1] | Kochia plant response rating [1] | Plant response rating, Barnyardgrass [2, 17] | Plant response rating, Barnyardgrass ([2]; 500 g ai/ha) | Plant response rating, Ryegrass, Italian [3] | Ryegrass, Italian plant response rating [3] | Plant response rating, Foxtail, Giant [4, 17] | Plant response rating, Ragweed [5, 17] | Plant response rating, Corn [6] | Corn plant response rating [6] | Plant response rating, Foxtail, Giant [7] | Foxtail, Giant plant response rating [7] | Plant response rating, Ragweed [8] | Ragweed plant response rating [8] | Plant response rating, Blackgrass [9] | Blackgrass plant response rating [9] | Plant response rating, Galium [10] | Galium plant response rating [10] | Plant response rating, Kochia [11, 17] | Plant response rating, Pigweed [12] | further results
Cc1cc(C)c(C(=O)N2CCC3(CCCC3)CC2)cc1NS(=O)(=O)C(F)(F)F [Compound 223] | 0 | 0 | 30 | 50 | 0 | 0 | 60 | 0 | 0 | 0 | 0 | 0 | 0 | 20 | 20 | 0 | 40 | 40 | 0 | 40 | Plant response rating, Foxtail, Giant ([4]; 500 g ai/ha): 100; Plant response rating, Ragweed ([5]; 500 g ai/ha): 50; Plant response rating, Kochia ([11]; 500 g ai/ha): 20; Pigweed plant response rating [12]: 30; Plant response rating, Pigweed [13, 17]: 10; Plant response rating, Pigweed ([13]; 500 g ai/ha): 90; Plant response rating, Barnyardgrass [14]: 10; Barnyardgrass plant response rating [14]: 20; Plant response rating, Ryegrass, Italian [15, 17]: 30; Plant response rating, Ryegrass, Italian ([15]; 500 g ai/ha): 80; Plant response rating, Wheat [16]: 0; Wheat plant response rating [16]: 0
Cc1cc(C)c(C(=O)N2CCC3(CCCC3)C2)cc1NS(=O)(=O)C(F)(F)F [Compound 225] | 0 | 10 | 70 | 90 | 60 | 40 | 90 | 30 | 0 | 0 | 0 | 0 | 20 | 40 | 0 | 20 | 50 | 80 | 0 | 90 | Plant response rating, Foxtail, Giant ([4]; 500 g ai/ha): 100; Plant response rating, Ragweed ([5]; 500 g ai/ha): 90; Plant response rating, Kochia ([11]; 500 g ai/ha): 40; Pigweed plant response rating [12]: 30; Plant response rating, Pigweed [13, 17]: 70; Plant response rating, Pigweed ([13]; 500 g ai/ha): 100; Plant response rating, Barnyardgrass [14]: 0; Barnyardgrass plant response rating [14]: 10; Plant response rating, Ryegrass, Italian [15, 17]: 70; Plant response rating, Ryegrass, Italian ([15]; 500 g ai/ha): 100; Plant response rating, Wheat [16]: 0; Wheat plant response rating [16]: 0
Cc1cc(C)c(C(=O)N2CCC(S(C)(=O)=O)CC2)cc1NS(=O)(=O)C(F)(F)F [Compound 233] | 0 | 30 | 0 | 30 | 0 | 0 | 40 | 0 | 0 | 0 | 0 | 0 | 0 | 0 | 0 | 40 | 80 | 90 | 0 | 30 | Foxtail, Giant plant response rating ([4]; 500 g ai/ha): 100; Ragweed plant response rating ([5]; 500 g ai/ha): 30; Kochia plant response rating ([11]; 500 g ai/ha): 80; Pigweed plant response rating [12]: 60; Plant response rating, Pigweed [13, 17]: 60; Pigweed plant response rating ([13]; 500 g ai/ha): 90; Plant response rating, Barnyardgrass [14]: 0; Barnyardgrass plant response rating [14]: 0; Plant response rating, Ryegrass, Italian [15, 17]: 20; Ryegrass, Italian plant response rating ([15]; 500 g ai/ha): 70; Plant response rating, Wheat [16]: 0; Wheat plant response rating [16]: 40
Cc1cc(C)c(C(=O)N2CCC(CC(F)(F)F)CC2)cc1NS(=O)(=O)C(F)(F)F [Compound 234] | 0 | 0 | 80 | 80 | 0 | 0 | 50 | 80 | 0 | 0 | 0 | 50 | 30 | 50 | 0 | 0 | 10 | 80 | 0 | 30 | Foxtail, Giant plant response rating ([4]; 500 g ai/ha): 50; Ragweed plant response rating ([5]; 500 g ai/ha): 90; Kochia plant response rating ([11]; 500 g ai/ha): 30; Pigweed plant response rating [12]: 60; Plant response rating, Pigweed [13, 17]: 50; Pigweed plant response rating ([13]; 500 g ai/ha): 100; Plant response rating, Barnyardgrass [14]: 60; Barnyardgrass plant response rating [14]: 70; Plant response rating, Ryegrass, Italian [15, 17]: 20; Ryegrass, Italian plant response rating ([15]; 500 g ai/ha): 50; Plant response rating, Wheat [16]: 0; Wheat plant response rating [16]: 0
Cc1cc(F)c(C(=O)N2CC(C)OC(C)C2)cc1N(S(=O)(=O)C(F)(F)F)S(=O)(=O)C(F)(F)F (stereo not shown) [Compound 235] | 10 | 30 | 0 | 0 | 30 | 60 | 10 | 40 | 0 | 30 | 20 | 30 | 60 | 90 | 0 | 20 | 70 | 70 | 30 | 30 | Foxtail, Giant plant response rating ([4]; 500 g ai/ha): 10; Ragweed plant response rating ([5]; 500 g ai/ha): 80; Kochia plant response rating ([11]; 500 g ai/ha): 50; Pigweed plant response rating [12]: 30; Plant response rating, Pigweed [13, 17]: 30; Pigweed plant response rating ([13]; 500 g ai/ha): 80; Plant response rating, Barnyardgrass [14]: 0; Barnyardgrass plant response rating [14]: 60; Plant response rating, Ryegrass, Italian [15, 17]: 50; Ryegrass, Italian plant response rating ([15]; 500 g ai/ha): 90; Plant response rating, Wheat [16]: 20; Wheat plant response rating [16]: 60
